Earlier results on 38 compounds are cited in PMC12308805, “Ultrahigh-Throughput Virtual Screening Strategies against PPI Targets: A Case Study of STAT Inhibitors” (Journal of Chemical Information and Modeling, 2025).

Each structure is given as a SMILES string.

One data set deals with STAT3. Conditions: sheet 6QHD_actives_decoys; retrospective screening set for STAT3 SH2 domain (PDB 6QHD); […]; ref DUD-E; cited from earlier work.
Turning to `COc1cc(S(=O)(=O)N2CCCCC2)ccc1N/C=C1/C(=O)NC(=O)N(c2ccccc2)C1=O` [Decoy344], the Type result is reported as “Inactive (Decoy)”.

As to `CO[C@@H]1C[C@H](O[C@H]2CC[C@]3(/C=N/CC#N)[C@H]4CC[C@]5(C)[C@@H](C6=CC(=O)OC6)CC[C@]5(O)[C@@H]4CC[C@]3(O)C2)O[C@@H](C)[C@@H]1O` [Decoy348], the Type entry is “Inactive (Decoy)”.

For the compound `Cc1ccc(S(=O)(=O)NCCCCNS(=O)(=O)c2ccc(C)c([N+](=O)[O-])c2)cc1[N+](=O)[O-]` [Decoy360], the Type result is given as “Inactive (Decoy)”.

Regarding `Cc1nccc(NS(=O)(=O)c2ccc(NC(=O)c3cccc(C(=O)Nc4ccc(S(=O)(=O)Nc5ccnc(C)n5)cc4)c3)cc2)n1` [Decoy361], the Type entry is reported as “Inactive (Decoy)”.

Staying with this data set, now noted: sheet 6QHD_actives_decoys; retrospective screening set for STAT3 SH2 domain (PDB 6QHD); decoys generated with DUD-E and presumed inactive, not tested; ref DUD-E; cited from earlier work.
Take `COC(=O)[C@@H]1[C@H](O)[C@H](C)[C@H](O)O[C@@H]1[C@H](C)[C@H](O)[C@@H](C)/C=C\C=C(/C)C(=O)Nc1c(C)c(OC(C)=O)c2c(c1O)C(=O)C(C)=C1OCOC(/C(C)=C/C(C)=O)=C12` [Decoy345]: the Type result is “Inactive (Decoy)”.

In the case of `CCCCOc1ccc([C@H]2C(C(=O)c3nc4c(C)cccn4c3C)=C(O)C(=O)N2CCOC)cc1OC` [Decoy346], the Type entry was “Inactive (Decoy)”.

Take `CC(=O)O[C@H]1[C@H](O)[C@H]([C@@](C)(O)CC[C@@H](O)C(C)(C)O)[C@@]2(C)CC[C@@]34C[C@@]35CC[C@H](O[C@@H]3OC[C@@H](O)[C@H](O)[C@H]3O)C(C)(C)[C@@H]5CC[C@H]4[C@]12C` [Decoy347]: the Type result was “Inactive (Decoy)”.

As to `COC(=O)[C@@H](/C(=N/N)C(=O)Nc1cc(Cl)ccc1Cl)c1nc2ccc([N+](=O)[O-])cc2nc1O` [Decoy349], the Type entry is on record as “Inactive (Decoy)”.

Consider `CN(C)S(=O)(=O)c1cccc(C(=O)NNC(=O)c2cn(-c3ccccc3)nc2-c2cccnc2)c1` [Decoy350], for which the Type entry is “Inactive (Decoy)”.

For the compound `COC(=O)c1ccc(NC(=O)CSc2nc(N)c(NC(=O)c3ccc(Br)o3)c(=O)[nH]2)cc1` [Decoy351], the Type result is given as “Inactive (Decoy)”.

Consider `COC(=O)CCSCCO[C@@H]1O[C@H](CO)[C@@H](O[C@@H]2O[C@H](CO)[C@@H](O)[C@@H](O)[C@H]2O)[C@@H](O)[C@H]1NC(C)=O` [Decoy352], for which the Type result was “Inactive (Decoy)”.

As for `COC(=O)CCSCCO[C@@H]1O[C@H](CO)[C@@H](O[C@@H]2O[C@H](CO)[C@@H](O)[C@@H](O)[C@H]2O)[C@H](O)[C@@H]1NC(C)=O` [Decoy353], the Type entry was “Inactive (Decoy)”.

On to `COC(=O)CCSCCO[C@@H]1O[C@H](CO)[C@@H](O[C@@H]2O[C@H](CO)[C@@H](O)[C@@H](O)[C@H]2O)[C@H](O)[C@H]1NC(C)=O` [Decoy354], for which the Type entry was “Inactive (Decoy)”.

Regarding `COc1ccc(/C=C(\C#N)C(=O)Nc2ccc(S(=O)(=O)Nc3ccc(C)cc3)cc2)cc1OS(=O)(=O)c1ccc(NC(C)=O)cc1` [Decoy355], the Type entry is recorded as “Inactive (Decoy)”.

With `O=C(O)C[C@H](NC(=O)CN(CCN(CC(=O)O)CC(=O)N[C@@H](CC(=O)O)C(=O)O)CC(=O)O)C(=O)O` [Decoy356], the Type entry is on record as “Inactive (Decoy)”.

As to `COc1ccc(NC(=O)C2=C(C)NC(SCC(=O)Nc3cccc(OC)c3)=C(C#N)[C@@H]2c2ccco2)cc1` [Decoy357], the Type entry is listed as “Inactive (Decoy)”.

On to `CCOC(=O)c1ccc(NC(=O)C/C(C)=N/NC(=O)C(=O)Nc2cccc(Cl)c2C)cc1` [Decoy358], for which the Type entry is on record as “Inactive (Decoy)”.

For the compound `COc1ccc2[nH]cc(CCN/C(=N\C(=O)CS[C@H]3N=N[C@@H](N)S3)Nc3nc(C)cc(C)n3)c2c1` [Decoy359], the Type entry was “Inactive (Decoy)”.

In the case of `COc1cc(C(=O)NCC(=O)N/N=C/c2cc(Br)ccc2OC(=O)c2ccc(C)cc2)cc(OC)c1OC` [Decoy362], the Type result is on record as “Inactive (Decoy)”.

With `CNC(=O)Cn1c(=O)[nH]c(NC)c(C(c2ccc(Cl)cc2)c2c(NC)[nH]c(=O)n(CC(=O)NC)c2=O)c1=O` [Decoy363], the Type result is given as “Inactive (Decoy)”.

As to `COC(=O)c1sc(S(=O)(=O)NCC(=O)OCC(=O)Nc2cccc(C#N)c2)c(C(=O)OC)c1C` [Decoy364], the Type result is reported as “Inactive (Decoy)”.

Regarding `O=C(CN(c1cccc([N+](=O)[O-])c1)S(=O)(=O)c1ccccc1)Nc1ccccc1C(=O)NCc1ccco1` [Decoy365], the Type result is “Inactive (Decoy)”.

Regarding `COC(=O)c1cc(NC(=S)/N=C(/NCCN2CCOCC2)Nc2nc(C)cc(C)n2)cc(C(=O)OC)c1` [Decoy366], the Type result was “Inactive (Decoy)”.

In the case of `C/C=C1/[C@H](O[C@@H]2O[C@H](CO)[C@@H](O)[C@H](O)[C@H]2O)OC=C(C(=O)OC)[C@H]1CC(=O)OCCc1ccc(O)c(O)c1` [Decoy367], the Type result is given as “Inactive (Decoy)”.

Take `CCCCN(CC(=O)Nc1c(-c2ccccc2)c(C)nn1-c1ccc(OC)cc1)C(=O)c1ccc(OC)cc1OC` [Decoy368]: the Type entry was “Inactive (Decoy)”.

On to `C=C1N=C2C[C@H](c3ccc(OC)c(OC)c3)CC(=O)C2[C@H](c2cc(Br)c(O)c(OCC)c2)C1C(=O)OCCOCC` (some centres unmarked) [Decoy369], for which the Type entry is given as “Inactive (Decoy)”.

For the compound `C=CCOC(=O)[C@H]1O[C@@H](OC(=O)c2cc(S(N)(=O)=O)c(Cl)cc2NCc2ccco2)[C@H](O)[C@@H](O)[C@@H]1O` [Decoy370], the Type result is “Inactive (Decoy)”.

As to `CCOC(=O)c1ccc(NC(=O)CSc2nc3cc(C(=O)OC)ccc3c(=O)n2CCN2CCOCC2)cc1` [Decoy371], the Type result was “Inactive (Decoy)”.

Turning to `COc1ccc(C(=O)O[C@H]2[C@@H]3C=CO[C@@H](O[C@@H]4O[C@H](COC(C)=O)[C@@H](OC(C)=O)[C@H](OC(C)=O)[C@H]4OC(C)=O)[C@@H]3[C@](O)(COC(C)=O)[C@@H]2O)cc1` [Decoy372], the Type result is “Inactive (Decoy)”.

On to `COc1ccc(C(=O)O[C@H]2[C@@H]3C=CO[C@H](O[C@@H]4O[C@H](COC(C)=O)[C@@H](OC(C)=O)[C@H](OC(C)=O)[C@H]4OC(C)=O)[C@@H]3[C@](O)(COC(C)=O)[C@@H]2O)cc1` [Decoy373], for which the Type entry is listed as “Inactive (Decoy)”.

With `O=C(CCN(Cc1ccco1)S(=O)(=O)c1ccc(Cl)cc1)NNC(=O)Nc1ccc(OC(F)(F)F)cc1` [Decoy374], the Type entry is “Inactive (Decoy)”.

As for `COc1ccc(C(=O)N/C(=C\c2cn(S(=O)(=O)N(C)C)c3ccccc23)C(=O)NCCN2CCOCC2)cc1OC` [Decoy375], the Type result was “Inactive (Decoy)”.

Regarding `NC(=O)CSc1nnc(NC(=O)CSc2nnc(N/N=C/c3cccc4ccccc34)n2N)s1` [Decoy376], the Type result is recorded as “Inactive (Decoy)”.

Consider `O=C(NCCCN1CCOCC1)C(C(=O)NCCCN1CCOCC1)c1ncc(C(F)(F)F)cc1Cl` [Decoy377], for which the Type entry was “Inactive (Decoy)”.

Take `CC(C)CNC(=O)c1ccc2c(=O)n(C(C)C)c3nn(CC(=O)Nc4ccc(F)cc4)c(=O)n3c2c1` [Decoy378]: the Type result was “Inactive (Decoy)”.

As to `COc1cc(/C=N/Nc2nnc(SCC(=O)Nc3ccc(C)cc3C)n2N)cc(OC)c1OC` [Decoy379], the Type entry is recorded as “Inactive (Decoy)”.

In the case of `C=CCn1c(SCC(=O)Nc2sc(C(N)=O)c(C)c2C(=O)OC)nnc1-c1ccc(N(C)C)cc1` [Decoy380], the Type entry is recorded as “Inactive (Decoy)”.

Regarding `CC(=O)N[C@@H]1[C@H]([C@H](O)[C@H](O)CO)O[C@@](O[C@H]2[C@@H](O)[C@@H](O[C@@H]([C@@H](O[C@@H]3O[C@@H](C)[C@@H](O)[C@H](O)[C@@H]3O)[C@H](O)C=O)[C@H](O)CO)O[C@@H](CO)[C@H]2O)(C(=O)O)C[C@@H]1O` [Decoy381], the Type result was “Inactive (Decoy)”.
